Assay [1] deals with T1, albumin (Homo sapiens, UniProt P02768). In words: Measurement of albumin glycation using spectrofluorimetric method (Ex/Em 370/440 nm). The class given is biochemical. The conditions noted are these: 5 mM; albumin incubated with glucose 0.5 M for 4 weeks. The method, then:
Glycation of protein in vitro was carried out according to following scheme: • 50 mg of protein (albumin, myoglobin) was dissolved in 1 ml 0.01M PBS (pH 7.4), containing D-glucose (0.1; 0.3; 0.5; 1M) and 5 mM toluene (as a bacteriostatic compound). The examined drug or aminoguanidine hydrochloride were added to samples at final concentrations from 0.1 mM to 5 mM. Samples were incubated at 37° C., in dark, for a specified period of time (1, 2, 3 and 4 weeks). Then, the protein was concentrated by ultrafiltration (30 min at 4000×g, 16° C.) with Amicon 50 cartridges (Millipore) with cut-off of 50 kDa (in case of albumin) or Amicon 10 cartridges with cut-off of 10 kDa (in case of myoglobin). The concentrated protein samples were dialyzed for 24 hrs, against distilled water, using dialysis membranes: Spectra Por (cut-off of 50 kDa for albumin and cut-off of 12-14 kDa for myoglobin). Then the samples were lyophilized overnight. • Control samples were prepared as above except of addition of glucose (control I) or drugs (control II). Sugar residues are characterized by fluorescence—Ex/Em 370/440 nm The action of drug is expressed by a suppression of the intensity of fluorescence. Lyophylized protein samples were dissolved in 0.01M PBS (pH 7.4), at concentration 0.5 mg protein/1 ml of buffer. […] Fluorescence intensity was measured at 440 nm emission upon excitation of 370 nm.

A further assay concerns AGEs. The assay is described as follows: Immunohistochemistry for AGEs in renal glomeruli, streptozotocin-induced diabetes model. Type of assay: in vivo, Sprague-Dawley rats. The conditions noted are these: STZ rats; 354±40 mg/kg/day in drinking water, 8 weeks; kidney. How it is done: (§1) All experimental studies using animals were approved by an Ethical Committee at the Jagiellonian University. Diabetes model was established by the single, intraperitoneal administration of streptozotocin (STZ, 75 mg/kg in citrate buffer, pH 4.5) to three-month Sprague-Dawley rats. In order to maintain glycaemia between 350 and 450 mg/dL, animals were treated twice a week by insulin (neutral protamine Hagedorn, NPH, 2-3 U/300 g of body weight).
(§2) The rats were divided into three groups (each one of n=4 animals): “control” group—animals injected with citrate buffer only (sham animals), “diabetes” group—STZ treated animals and “STZ+drug” group—STZ-rats treated with examined drug (354±40 mg/kg/day in drinking water). The experiment lasted 8 weeks. Animals were anesthetized and killed, and both the tissue samples (kidneys, heart, lungs, brain) as well as blood samples were harvested. The presence of AGEs was evaluated by immunohistochemistry, with use of specific antibodies (Abcam, USA).

For assay [2], the target named is T1, albumin. The assay is described as follows: Measurement of glycation by mass spectrometry (gain of molecular weight of albumin incubated with glucose). The class given is biochemical. The method, then: Glycation of protein in vitro was carried out according to following scheme: • 50 mg of protein (albumin, myoglobin) was dissolved in 1 ml 0.01M PBS (pH 7.4), containing D-glucose (0.1; 0.3; 0.5; 1M) and 5 mM toluene (as a bacteriostatic compound). The examined drug or aminoguanidine hydrochloride were added to samples at final concentrations from 0.1 mM to 5 mM. Samples were incubated at 37° C., in dark, for a specified period of time (1, 2, 3 and 4 weeks). Then, the protein was concentrated by ultrafiltration (30 min at 4000×g, 16° C.) with Amicon 50 cartridges (Millipore) with cut-off of 50 kDa (in case of albumin) or Amicon 10 cartridges with cut-off of 10 kDa (in case of myoglobin). The concentrated protein samples were dialyzed for 24 hrs, against distilled water, using dialysis membranes: Spectra Por (cut-off of 50 kDa for albumin and cut-off of 12-14 kDa for myoglobin). Then the samples were lyophilized overnight. • Control samples were prepared as above except of addition of glucose (control I) or drugs (control II). The method is based on a measurement of protein molecular weight (albumin, myoglobin), which is increased in proportion to the number of bound sugar moieties. […] Based on obtained MS spectra, average protein molecular weight was calculated using BioWorks 1.0 software (Finnigan, San Jose, USA).

Assay [3] in a line: Glycaemia in streptozotocin-induced diabetes model. Type of assay: in vivo, Sprague-Dawley rats. To be noted: rats injected with STZ; 354±40 mg/kg/day in drinking water, 8 weeks. The method, then: as §1, §2

T1 sequence (P02768 25-609, species assumed): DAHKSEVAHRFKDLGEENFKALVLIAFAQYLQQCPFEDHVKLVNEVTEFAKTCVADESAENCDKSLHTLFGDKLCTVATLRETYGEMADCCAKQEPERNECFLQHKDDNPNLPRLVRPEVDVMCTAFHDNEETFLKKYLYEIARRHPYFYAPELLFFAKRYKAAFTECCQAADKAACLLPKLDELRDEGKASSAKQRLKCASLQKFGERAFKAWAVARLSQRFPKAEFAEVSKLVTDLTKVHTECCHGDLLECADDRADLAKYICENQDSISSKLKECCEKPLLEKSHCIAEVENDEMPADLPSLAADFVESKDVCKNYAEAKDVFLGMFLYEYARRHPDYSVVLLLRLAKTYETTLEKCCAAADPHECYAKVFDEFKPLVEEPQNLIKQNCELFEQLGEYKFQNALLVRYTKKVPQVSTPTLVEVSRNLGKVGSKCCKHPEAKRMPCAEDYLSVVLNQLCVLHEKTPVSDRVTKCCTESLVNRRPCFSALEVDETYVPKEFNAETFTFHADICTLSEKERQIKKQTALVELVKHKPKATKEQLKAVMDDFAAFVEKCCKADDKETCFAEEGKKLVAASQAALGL

For `Cl.N=C(N)NN` [aminoguanidine, aminoguanidine hydrochloride], the “inhibition of glycation (spectrofluorimetric method)” value against albumin [1] was found to be 67%.
Turning to `NC(=O)CN1CCCC1=O` [tested compound, 2-(2-oxo-1-pyrrolidin-1-yl) acetamide], in the assay on AGEs, the “number of AGE-positive glomeruli” value is “significantly reduced” and the “severity of changes in glomeruli” value is recorded as “significantly reduced”. The “inhibition of protein glycation (mass spectrometry method)” value against albumin [2] (5 mM, albumin 50 mg/ml, glucose 0.5 M, 4 weeks, compared to mass of albumin incubated with glucose alone) came out at 33%. In addition, at albumin [2] (in vitro model, FIG. 1, strength comparable to aminoguanidine), the “addition of glucose moieties to albumin” value was “inhibited dose-dependently”. In assay [3], the glycaemia amounted to 429 ± 65.0 mg/dL and the influence on glycaemia entry is listed as “did not influence glycaemia”. For the same molecule, the “inhibition of glycation (spectrofluorimetric method)” value on albumin [1] stood at 45%.

The record behind these values is patent US8686037B2, “Use of piracetam for treating diabetic nephropathy” (Uniwersytet Jagiellonski, priority 2009, dated 2014).
